# Values of other authors in patent US20030027808A1, “Farnesyl protein transferase inhibitor combinations with platinum compounds” (priority 2000, published 2003).
# System: colon cancer (LoVo)
# Conditions: in combination with cisplatin; in vitro LoVo colon cancer model; reported at 90th AACR Annual Meeting, Apr. 10-14, 1999
compound,measurement,value
"Cn1cncc1C(N)(c1ccc(Cl)cc1)c1ccc2c(c1)c(-c1cccc(Cl)c1)cc(=O)n2C (single isomer, unassigned; (+)) [(+)-6-[amino(4-chlorophenyl)(1-methyl-1H-imidazol-5-yl)methyl]-4-(3-chlorophenyl)-1-methyl-2(1H)-quinolinone]",anti-tumor effect of the combination,additive anti-tumor effect
